The values that follow come from US6399590B2, “Phosphoglycolipid and methods for its use” (Corixa Corporation, priority 1998, dated 2002).

Molecules are shown by their SMILES.

For assay [1], the system named is TNF-α secretion by THP-1 cells. As to the kind of experiment: TNF-α secretion in THP-1 cells (ELISA). In kind it is cell-based, human. Conditions: any concentration between 1 ng/ml and 10 μg/ml; supernatants at 4, 16 and 24 hours. The procedure:
(§1) The human myelomonocytic cell line THP-1 is commonly used for the analysis of the proinflammatory status of various compounds. THP-1 cells (American Type Culture Collections Cat. No. 202-TIB) were grown in RPMI 1640, 10% heat inactivated fetal bovine serum (FBS) and […] β-mercaptoethanol to a cell density of between 4×10^5/ml and 7×10^5/ml. Cells were removed from culture and resuspended at 1×10^6 cells/ml in RPMI 1640 containing 5% fetal bovine serum. Resuspended cells were then pipetted into sterile, disposable polystyrene 150×25 mm petri dishes and treated with the natural maturational agent 1α, 25-dihyroxyvitamin D3 at 1×10^−7 M between 24 and 72 hours depending on the degree of maturation desired. These maturationally “pretreated” cells were then washed 3× in RPMI 1640 containing more than 2% but less than 10% fetal bovine serum. After the third wash cells were resuspended in RPMI 1640 containing 5% FBS plus 2% human AB sera (Irvine Scientific) at 5×10^5 cells/ml and transferred at 2 ml per well in a tissue culture grade, flat bottom polystyrene 24 well plate. […] Cytokine concentration in the THP-1 culture supernatants were quantified using standard human cytokine ELISA kits from R&D Laboratories. […]
(In an ELISA, binding on a coated surface is turned into a signal by an enzyme label.)

The subject of assay [2] is Mongrel dogs, LAD occlusion/reperfusion. As to the kind of experiment: Infarct size in dogs with bolus plus drug infusion. Conditions: FIG. 3. In kind it is in vivo, dog. The procedure: Mongrel dogs weighing 16-24 kg were randomly assigned to one of four groups: vehicle control; L34 high dose bolus plus infusion; L34 low dose bolus plus infusion and L34 bolus only. Animals in the L34 high dose bolus plus infusion group received an intravenous bolus injection of 70 μg/kg L34 formulated in vehicle (40% propylene glycol and 10% ethanol in water) and diluted in 5% dextrose in water to a final volume of 10 ml immediately followed by 40 μg/kg/h infusion of the drug beginning three hours prior to occlusion. The low dose bolus plus infusion group of dogs were bolus dosed with 35 μg/kg of drug followed immediately thereafter by infusion of drug at a dose of 4.0 μg/kg/h. […]
After stabilization, animals underwent a 60 min period of occlusion. Heart rate and arterial pressures were monitored at baseline, immediately before the sustained occlusion, and at 10 min after the onset of occlusion. […] The severity of ischemia was assessed in all dogs by measurement of RMBF at 10 min after the onset of LAD occlusion.
At the end of 3 h reperfusion the LAD was reoccluded and UNISPERSE® blue pigment (0.25-0.5 ml/kg) was injected into the coronary vasculature via the left atrial catheter to delineate the in vivo boundaries of the occluded LAD bed, and, with animals under deep anesthesia, cardiac arrest was produced by intracardiac injection of KCl. […] RMBF was then quantified using standard methods.

Assay [3] concerns IL-8 secretion by THP-1 cells. In words: IL-8 secretion in THP-1 cells (ELISA). In kind it is cell-based, human. Conditions: any concentration between 1 ng/ml and 10 μg/ml; supernatants at 4, 16 and 24 hours. The procedure: as §1

Turning to `CCCCCCCCCCCCCCCCCC(=O)O[C@H](CCCCCCCCCCC)CC(=O)N[C@H]1[C@H](OC[C@H]2OC(O)[C@H](NC(=O)C[C@@H](CCCCCCCCCCC)OC(=O)CCCCCCCCCCCCCCC)[C@@H](O)[C@@H]2O)O[C@H](CO)[C@@H](OP(=O)(O)O)[C@@H]1OC(=O)C[C@@H](CCCCCCCCCCC)OC(=O)CCCCCCCCCCCCC` (stereo partly drawn) [L34, 2-Deoxy-6-O-[2-deoxy-4-O-phosphono-3-O-[(R)-3-tetradecanoyloxytetradecanoyl]-2-[(R)-3-octadecanoyloxytetradecanoylamino]-β-D-glucopyranosyl]-2-[(R)-3-hexadecanoyloxytetradecanoylamino]-D-glucopyranose], the TNF-α secretion result in assay [1] is “did not induce detectable”. The “infarct size as ratio of area of necrosis (AN) to area at risk (AR)” value is recorded as “no reduction in infarct size” in assay [2] (70 μg/kg bolus only, 3 h before occlusion) and “statistically significant reduction in infarct size” in assay [2] (bolus (70 or 35 μg/kg) plus infusion (40 or 4.0 μg/kg/h) beginning 3 h prior to occlusion). Also, the IL-8 secretion entry in assay [3] is recorded as “did not induce detectable”.
